The text below walks through data of patent publication US20260151379A1, “SALT TYPE AND CRYSTAL FORM OF COMPLEMENT FACTOR B INHIBITOR, AND PREPARATION METHOD THEREFOR AND APPLICATION THEREOF” (SHANGHAI MEIYUE BIOTECH DEVELOPMENT CO., LTD., priority 2022, published 2026).

Assay type in all cases: physicochemical
Series [1] is described as follows: Stability tests of compound of formula I and its monohydrochloride, phosphate and maleate (Example 4). The note with it: for Stability (conclusion in words from Table 7): 40° C./75% RH closed/open and 60° C. closed, 2 wks. On the procedure: The stability of the compound of formula I, the monohydrochloride of the compound of formula I in Example 1, the phosphate of the compound of formula I in Example 2, and the maleate of the compound of formula I in Example 3 were investigated.
Stability investigation conditions: 40° C./75% RH-closed, 40° C./75% RH-open, and 60° C.-closed; stability investigation content: changes in related substances and crystal forms.
Detection of related substances: about 6-7 mg of a sample was separately weighed out and added to a 10 mL volumetric flask; 50% aqueous acetonitrile solution was added for dissolution; the mixture was diluted to volume; and 10 μL of the sample was injected.

The nature of series [2]: Solubility tests in water, SGF, FaSSIF, FeSSIF at 37° C. (Example 5). On the procedure:
Experimental procedures: 30 mg (in water) or 15 mg of a sample was weighed out and added to a 4 mL vial; 3 mL of a medium to be tested (water, SGF, FaSSIF, or FeSSIF) was added; the mixture was continuously stirred at 37° C.; 0.5 mL of the sample was separately collected at 1 h and 24 h; centrifugation was performed at 12000 rpm for 10 min; the supernatant was diluted with 50% aqueous acetonitrile solution to an appropriate multiple; and the concentration of the supernatant was determined.
Control and linearity: 10 mg of the compound of formula I was weighed out and added to a 50 mL volumetric flask, 50% aqueous acetonitrile solution was added for dissolution, and the mixture was diluted to volume. Two parts were prepared in parallel. The control of the compound of formula I was taken and diluted with 50% aqueous acetonitrile solution to 100 μg/mL, 50 μg/mL, and 10 μg/mL, 5 μL of the sample was injected, and a standard curve was plotted.

The nature of series [3]: Open storage of crystal form A under acceleration conditions (Example 7). The note with it: 40° C./75% RH, 72 h. An excerpt:
The crystal form B is a monohydrate of the monohydrochloride of the compound of formula I.

Series [4] can be described thus: Stability investigation of crystal form C of monohydrochloride, 1 month (Example 11). On the procedure:
[…] The stability of the crystal form was investigated.
Detection method for related substances of the stability sample: about 6 mg of the sample was weighed out and added to a 40 mL clean glass bottle; 10 mL of 50% aqueous acetonitrile solution was added; the sample was dissolved completely by ultrasonication; and 10 μL of the sample was injected for the test of the related substances, as shown in Table 15. The XRPD pattern is shown in FIG. 18, wherein HCl-salt Form 3-initial (hereinafter referred to as initial) represents the XRPD pattern of the crystal form C prepared in Example 8.

A short description of series [5]: Solubility tests of compound of formula I, mixture of crystal forms A and B, and crystal form C at 37° C. (Example 13). On the procedure:
An appropriate amount of a test sample was weighed out and added to a vial; 3 mL of a medium (water, SGF, FaSSIF, FeSSIF, or the like) was added; the mixture was stirred at 37° C.; […]; centrifugation was performed at 12000 rpm for 10 min; the supernatant was diluted with 50% aqueous acetonitrile solution to an appropriate multiple; and the concentration of the supernatant was determined.
Control and linearity: 10 mg of the compound of formula I was weighed out and added to a 50 mL volumetric flask, 50% aqueous acetonitrile solution was added for dissolution, and the mixture was diluted to volume. Two parts were prepared in parallel. The control was taken and diluted with 50% aqueous acetonitrile solution to 100 μg/mL, 50 μg/mL, and 10 μg/mL, 5 μL of the sample was injected, and a standard curve was plotted.

Series [6] in a line: Effect of high temperature and high humidity on crystal form C (Example 12). The note with it: open, 60° C., 80% RH and 92.5% RH, 1 day and 3 days. The text has this:
The sample was separately collected on 1d and 3d for XRPD testing.

The mark [7] stands for this setting: FaSSIF, listed as Compound of formula I Hydrochloride.
The mark [8] stands for this setting: FeSSIF, listed as Compound of formula I Hydrochloride.
The mark [9] stands for this setting: SGF, listed as Compound of formula I Hydrochloride.
The mark [10] stands for this setting: Water, listed as Compound of formula I Hydrochloride.
The mark [11] stands for this setting: Initial, listed as Crystal form C of monohydrochloride of compound of formula I.
[12] abbreviates: pH 6.8 (adjusted with sodium hydroxide solution), 37° C.
Where [13] appears, read: pH 7.4 (adjusted with sodium hydroxide solution), 37° C.

Several values for one entry are separate records, joined by “and”; a condition that tells them apart may be missing. Equal values may be shown once. Where a name gives a salt, the structure may show the parent alone.

In the case of `COc1cc(C)c2[nH]ccc2c1CN1CCC(OCC2CC2)CC1c1ccc(C(=O)O)cc1.O=C(O)C=CC(=O)O` (stereo not shown) [Compound of formula I Maleate], in series [1], the “Stability (conclusion in words from Table 7)” value was “stable”. For the same compound, in series [1] (40° C./75% RH-closed-2 wks), the Appearance result is recorded as “White powder”, the “Maximum single impurity %” value is 0.08%, the Purity % is on record as 99.78% and the Total impurity % is given as 0.22%. Besides, in series [1] (40° C./75% RH-open-2 wks), the “Maximum single impurity %” value came out at 0.09%, the Purity % turned out to be 99.64% and the Total impurity % was determined as 0.36%. In addition, in series [1] (60° C.-closed-2 wks), the Appearance entry is on record as “White powder”, the “Maximum single impurity %” value is given as 0.09%, the Purity % stood at 99.69% and the Total impurity % was determined as 0.31%. In addition, in series [1] (Initial), the Appearance entry is recorded as “White powder”, the “Maximum single impurity %” value is 0.08%, the Purity % amounted to 99.80% and the Total impurity % is given as 0.20%.

Regarding `COc1cc(C)c2[nH]ccc2c1CN1CC[C@H](OCC2CC2)C[C@H]1c1ccc(C(=O)O)cc1` [Compound of formula I Monohydrochloride], the “Stability (conclusion in words from Table 7)” value in series [1] (listed as monohydrochloride) was “more stable”. The Appearance entry in series [1] (40° C./75% RH-closed-2 wks), in series [1] (40° C./75% RH-open-2 wks), in series [1] (60° C.-closed-2 wks) and in series [1] (Initial) was “White powder” in each case. Also, the “Maximum single impurity %” value in series [1] (40° C./75% RH-closed-2 wks) is 0.11%; in series [1] (40° C./75% RH-open-2 wks), 0.10%; in series [1] (60° C.-closed-2 wks), 0.13%; in series [1] (Initial) it was 0.14%. Moreover, the Purity % in series [1] (40° C./75% RH-closed-2 wks) was determined as 99.57%; in series [1] (40° C./75% RH-open-2 wks) it was 99.59%; in series [1] (60° C.-closed-2 wks), 99.59%; in series [1] (Initial), 99.59%. Also, the Total impurity % in series [1] (40° C./75% RH-closed-2 wks) is reported as 0.43%; in series [1] (40° C./75% RH-open-2 wks) it was 0.41%; in series [1] (60° C.-closed-2 wks), 0.41%; in series [1] (Initial), 0.41%. Moreover, the “Final pH” value in series [2] (setting [7]) stood at 3.83; in series [2] (setting [8]), 4.85; in series [2] (setting [9]), 1.52; in series [2] (setting [10]), 2.49. Moreover, the “Solubility (mg/mL) (1 h)” value in series [2] (setting [7]) was 0.64 mg/mL; in series [2] (setting [8]), 0.74 mg/mL; in series [2] (setting [9]), 5.90 mg/mL; in series [2] (setting [10]), 11.74 mg/mL. The “Solubility (mg/mL) (24 h)” value in series [2] (setting [7]) is reported as 0.39 mg/mL; in series [2] (setting [8]), 0.44 mg/mL; in series [2] (setting [9]), 5.97 mg/mL; in series [2] (setting [10]), 11.14 mg/mL.

Take `COc1cc(C)c2[nH]ccc2c1CN1CCC(OCC2CC2)CC1c1ccc(C(=O)O)cc1.O=P(O)(O)O` (stereo not shown) [Compound of formula I Phosphate]: the “Stability (conclusion in words from Table 7)” value in series [1] is “stable”. Also, the Appearance entry in series [1] (40° C./75% RH-closed-2 wks), in series [1] (40° C./75% RH-open-2 wks), in series [1] (60° C.-closed-2 wks) and in series [1] (Initial) was “White powder” throughout. Also, the “Maximum single impurity %” value amounted to 0.09% in series [1] (40° C./75% RH-closed-2 wks), 0.09% in series [1] (40° C./75% RH-open-2 wks), 0.08% in series [1] (60° C.-closed-2 wks) and 0.07% in series [1] (Initial). Besides, the Purity % amounted to 99.63% in series [1] (40° C./75% RH-closed-2 wks), 99.64% in series [1] (40° C./75% RH-open-2 wks), 99.62% in series [1] (60° C.-closed-2 wks) and 99.75% in series [1] (Initial). Moreover, the Total impurity % in series [1] (40° C./75% RH-closed-2 wks) was 0.37%; in series [1] (40° C./75% RH-open-2 wks) it was 0.36%; in series [1] (60° C.-closed-2 wks) it was 0.38%; in series [1] (Initial) it was 0.25%. In addition, the “Final pH” value was 4.76 in series [2] (FaSSIF), 4.84 in series [2] (FessIF), 1.61 in series [2] (SGF) and 2.53 in series [2] (Water). Moreover, the “Solubility (mg/mL) (1 h)” value turned out to be 0.45 mg/mL in series [2] (FaSSIF), 0.64 mg/mL in series [2] (FessIF), 5.35 mg/mL in series [2] (SGF) and 8.07 mg/mL in series [2] (Water). Besides, the “Solubility (mg/mL) (24 h)” value in series [2] (FaSSIF) turned out to be 0.27 mg/mL; in series [2] (FessIF) it was 0.40 mg/mL; in series [2] (SGF) it was 5.55 mg/mL; in series [2] (Water), 6.24 mg/mL.

`COc1cc(C)c2[nH]ccc2c1CN1CCC(OCC2CC2)CC1c1ccc(C(=O)O)cc1.Cl` (stereo not shown) [Crystal form A]: the “Crystal form after open storage” value in series [3] is listed as “transformed into crystal form B”.

In general, solubility refers to the concentration that dissolves in the medium under given conditions. Consider `COc1cc(C)c2[nH]ccc2c1CN1CCC(OCC2CC2)CC1c1ccc(C(=O)O)cc1.Cl` (stereo not shown) [Crystal form C], for which the “Chemical stability (in words)” value in series [4] (40° C./75% RH and 60° C. for 1 month) was “good chemical stability”. The “Maximum single impurity %” value in series [4] (40° C./75% RH-closed-1 M) was 0.29%; in series [4] (40° C.75% RH-open-1 M), 0.27%; in series [4] (60° C.-closed-1 M), 0.32%; in series [4] (setting [11]), 0.65% and 0.96%. The Purity % is 99.58% in series [4] (40° C./75% RH-closed-1 M); 99.60% in series [4] (40° C.75% RH-open-1 M); 99.56% in series [4] (60° C.-closed-1 M); 99.17% and 98.88% in series [4] (setting [11]). Moreover, the Total impurity % in series [4] (40° C./75% RH-closed-1 M) is 0.42%; in series [4] (40° C.75% RH-open-1 M) it was 0.40%; in series [4] (60° C.-closed-1 M) it was 0.44%; in series [4] (setting [11]), 0.83% and 1.12%. Besides, in series [4] (Initial), the Appearance result is reported as “White powder”. In series [4] (acceleration and high temperature conditions, 1 month), the “Crystal form by XRPD after storage (FIG. 18)” value was “not changed”. For the same compound, the “Final pH” value was found to be 3.27 in series [5] (FaSSIF, 37° C.); 4.83 in series [5] (FessIF, 37° C.); 1.26 in series [5] (SGF, 37° C.); 2.49 in series [5] (Water, 37° C.); 6.65 in series [5] (pH 6.8, 37° C., 1 h line); 6.82 in series [5] (pH 6.8, 37° C., 48 h line). In addition, the “Final pH” value in series [5] (pH 7.4, 37° C., 1 h line) was determined as 7.23; in series [5] (pH 7.4, 37° C., 48 h line), 7.42. The “solubility at 1 h” value in series [5] (FaSSIF, 37° C.) is 1160 µg/mL; in series [5] (FessIF, 37° C.), 640 µg/mL; in series [5] (SGF, 37° C.) it was 940 µg/mL; in series [5] (Water, 37° C.), 8320 µg/mL. For the same compound, the “solubility at 24 h” value worked out at 880 µg/mL in series [5] (FaSSIF, 37° C.); 420 µg/mL in series [5] (FessIF, 37° C.); 790 µg/mL in series [5] (SGF, 37° C.); 7540 µg/mL in series [5] (Water, 37° C.). In addition, the “Solubility in water compared to mixture of crystal forms A and B (in words)” value in series [5] (Water, 37° C.) was “reduced solubility in water compared to the mixture of crystal forms A and B”. Besides, the “Solubility at 1 h (mg/mL)” value is recorded as 0.56(1 h) mg/mL in series [5] (setting [12]) and 0.45(1 h) mg/mL in series [5] (setting [13]). Also, the “Solubility (mg/mL) (48 h)” value was 0.21(48 h) mg/mL in series [5] (setting [12]) and 0.24(48 h) mg/mL in series [5] (setting [13]). For the same compound, the “Crystal form by XRPD after exposure (FIGS. 19 and 20)” value in series [6] is listed as “not changed”.
